Test results as given in the supplement of paper PMC10307832.

Assays:
Test in all cases: relative viability (nuclei count vs DMSO), 5 days (fraction); higher = more cells survive
Vorinostat + Olaparib = compound: O=C(CCCCCCC(=O)Nc1ccccc1)NO [Vorinostat] + O=C(c1cc(Cc2n[nH]c(=O)c3ccccc23)ccc1F)N1CCN(C(=O)C2CC2)CC1 [Olaparib] (partner 8 µM)
Summary of the method: (§1)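 Medians of duplicate plates are given as relative viability. That measure is the nuclei count in treated wells divided by the count in vehicle wells. Counts were taken on 4× images of lung cancer cell lines in 1536-well plates, 5 days after pin-tool dosing the day after seeding with one drug alone or a fixed anchor-drug dose plus five library-drug doses (not always all listed) in √10 steps.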

Vorinostat + Phenformin = compound: O=C(CCCCCCC(=O)Nc1ccccc1)NO [Vorinostat] + N=C(N)NC(=N)NCCc1ccccc1 [Phenformin] (partner 250 µM)
Summary of the method: as §1

Vorinostat + Luminespib = compound: O=C(CCCCCCC(=O)Nc1ccccc1)NO [Vorinostat] + CCNC(=O)c1noc(-c2cc(C(C)C)c(O)cc2O)c1-c1ccc(CN2CCOCC2)cc1 [Luminespib] (partner 0.01 µM)
Summary of the method: as §1

Vorinostat + Alpelisib = compound: O=C(CCCCCCC(=O)Nc1ccccc1)NO [Vorinostat] + Cc1nc(NC(=O)N2CCC[C@H]2C(N)=O)sc1-c1ccnc(C(C)(C)C(F)(F)F)c1 [Alpelisib] (partner 2 µM)
Summary of the method: as §1

Vorinostat + Bortezomib = compound: O=C(CCCCCCC(=O)Nc1ccccc1)NO [Vorinostat] + CC(C)C[C@H](NC(=O)[C@H](Cc1ccccc1)NC(=O)c1cnccn1)B(O)O [Bortezomib] (partner 0.002 µM)
Summary of the method: as §1

SW 900
relative viability (Vorinostat + Olaparib; first compound 0.253 µM): 0.901
relative viability (Vorinostat + Olaparib; first compound 0.8 µM): 0.589
relative viability (Vorinostat + Olaparib; first compound 2.53 µM): 0.192
relative viability (Vorinostat + Olaparib; first compound 8 µM): 0.113
relative viability (Vorinostat + Phenformin; first compound 0.253 µM): 0.73
relative viability (Vorinostat + Phenformin; first compound 0.8 µM): 0.391
relative viability (Vorinostat + Phenformin; first compound 2.53 µM): 0.322
relative viability (Vorinostat + Phenformin; first compound 8 µM): 0.091
relative viability (Vorinostat + Luminespib; first compound 0.253 µM): 0.172
relative viability (Vorinostat + Luminespib; first compound 0.8 µM): 0.161
relative viability (Vorinostat + Luminespib; first compound 2.53 µM): 0.16
relative viability (Vorinostat + Luminespib; first compound 8 µM): 0.133

NCI-H358
relative viability (Vorinostat + Olaparib; first compound 0.253 µM): 0.722
relative viability (Vorinostat + Olaparib; first compound 0.8 µM): 0.609
relative viability (Vorinostat + Olaparib; first compound 2.53 µM): 0.227
relative viability (Vorinostat + Olaparib; first compound 8 µM): 0.0636
relative viability (Vorinostat + Phenformin; first compound 0.253 µM): 0.5
relative viability (Vorinostat + Phenformin; first compound 0.8 µM): 0.47
relative viability (Vorinostat + Phenformin; first compound 2.53 µM): 0.115
relative viability (Vorinostat + Phenformin; first compound 8 µM): 0.082
relative viability (Vorinostat + Alpelisib; first compound 0.253 µM): 1.05
relative viability (Vorinostat + Alpelisib; first compound 0.8 µM): 0.939
relative viability (Vorinostat + Alpelisib; first compound 2.53 µM): 0.226
relative viability (Vorinostat + Alpelisib; first compound 8 µM): 0.177
relative viability (Vorinostat + Luminespib; first compound 0.253 µM): 0.429
relative viability (Vorinostat + Luminespib; first compound 0.8 µM): 0.521
relative viability (Vorinostat + Luminespib; first compound 2.53 µM): 0.308
relative viability (Vorinostat + Luminespib; first compound 8 µM): 0.126

NCI-H1395
relative viability (Vorinostat + Olaparib; first compound 0.253 µM): 0.513
relative viability (Vorinostat + Olaparib; first compound 0.8 µM): 0.465
relative viability (Vorinostat + Olaparib; first compound 2.53 µM): 0.436
relative viability (Vorinostat + Olaparib; first compound 8 µM): 0.318
relative viability (Vorinostat + Phenformin; first compound 0.253 µM): 0.475
relative viability (Vorinostat + Phenformin; first compound 0.8 µM): 0.501
relative viability (Vorinostat + Phenformin; first compound 2.53 µM): 0.401
relative viability (Vorinostat + Phenformin; first compound 8 µM): 0.341
relative viability (Vorinostat + Alpelisib; first compound 0.253 µM): 1.48
relative viability (Vorinostat + Alpelisib; first compound 0.8 µM): 1.09
relative viability (Vorinostat + Alpelisib; first compound 2.53 µM): 0.57
relative viability (Vorinostat + Alpelisib; first compound 8 µM): 0.373
relative viability (Vorinostat + Luminespib; first compound 0.253 µM): 0.912
relative viability (Vorinostat + Luminespib; first compound 0.8 µM): 0.829
relative viability (Vorinostat + Luminespib; first compound 2.53 µM): 0.643
relative viability (Vorinostat + Luminespib; first compound 8 µM): 0.346

IA-LM
relative viability (Vorinostat + Bortezomib; first compound 0.253 µM): 1.03
relative viability (Vorinostat + Bortezomib; first compound 0.8 µM): 0.547
relative viability (Vorinostat + Bortezomib; first compound 2.53 µM): 0.161
relative viability (Vorinostat + Bortezomib; first compound 8 µM): 0.0471
relative viability (Vorinostat + Olaparib; first compound 0.253 µM): 0.911
relative viability (Vorinostat + Olaparib; first compound 0.8 µM): 0.701
relative viability (Vorinostat + Olaparib; first compound 2.53 µM): 0.405
relative viability (Vorinostat + Olaparib; first compound 8 µM): 0.0749
relative viability (Vorinostat + Alpelisib; first compound 0.253 µM): 0.769
relative viability (Vorinostat + Alpelisib; first compound 0.8 µM): 0.512
relative viability (Vorinostat + Alpelisib; first compound 2.53 µM): 0.224
relative viability (Vorinostat + Alpelisib; first compound 8 µM): 0.0622

NCI-H1563
relative viability (Vorinostat + Bortezomib; first compound 0.253 µM): 0.977
relative viability (Vorinostat + Bortezomib; first compound 0.8 µM): 0.778
relative viability (Vorinostat + Bortezomib; first compound 2.53 µM): 0.579
relative viability (Vorinostat + Bortezomib; first compound 8 µM): 0.503
relative viability (Vorinostat + Phenformin; first compound 0.253 µM): 0.771
relative viability (Vorinostat + Phenformin; first compound 0.8 µM): 0.727
relative viability (Vorinostat + Phenformin; first compound 2.53 µM): 0.556
relative viability (Vorinostat + Phenformin; first compound 8 µM): 0.492
relative viability (Vorinostat + Alpelisib; first compound 0.253 µM): 0.93
relative viability (Vorinostat + Alpelisib; first compound 0.8 µM): 0.8
relative viability (Vorinostat + Alpelisib; first compound 2.53 µM): 0.642
relative viability (Vorinostat + Alpelisib; first compound 8 µM): 0.555
relative viability (Vorinostat + Luminespib; first compound 0.253 µM): 0.587
relative viability (Vorinostat + Luminespib; first compound 0.8 µM): 0.496
relative viability (Vorinostat + Luminespib; first compound 2.53 µM): 0.433
relative viability (Vorinostat + Luminespib; first compound 8 µM): 0.416

LK-2
relative viability (Vorinostat + Olaparib; first compound 0.253 µM): 0.705
relative viability (Vorinostat + Olaparib; first compound 0.8 µM): 0.62
relative viability (Vorinostat + Olaparib; first compound 2.53 µM): 0.309
relative viability (Vorinostat + Olaparib; first compound 8 µM): 0.0471
relative viability (Vorinostat + Phenformin; first compound 0.253 µM): 0.778
relative viability (Vorinostat + Phenformin; first compound 0.8 µM): 0.321
relative viability (Vorinostat + Phenformin; first compound 2.53 µM): 0.197
relative viability (Vorinostat + Phenformin; first compound 8 µM): 0.126
relative viability (Vorinostat + Alpelisib; first compound 0.253 µM): 1.07
relative viability (Vorinostat + Alpelisib; first compound 0.8 µM): 0.847
relative viability (Vorinostat + Alpelisib; first compound 2.53 µM): 0.234
relative viability (Vorinostat + Alpelisib; first compound 8 µM): 0.125
relative viability (Vorinostat + Luminespib; first compound 0.253 µM): 0.207
relative viability (Vorinostat + Luminespib; first compound 0.8 µM): 0.171
relative viability (Vorinostat + Luminespib; first compound 2.53 µM): 0.152
relative viability (Vorinostat + Luminespib; first compound 8 µM): 0.132
